≈ marks a conversion by molar mass, not a printed value.
Assays:
hepatocytes from mouse = test: In vitro hepatocyte study, mouse; format: in vitro ADME; conditions: concomitant appearance of parent compound and its glucuronide metabolite
Description: (§1) In vitro hepatocyte study: The disposition of (2R)-4-[5-fluoro-4-(2-fluoro-4-methoxyphenyl)-2-oxopyridin-1(2H)-yl]-N-hydroxy-2-methyl-2-(methylsulfonyl) butanamide phosphate was examined in hepatocytes from mouse, rat, dog, monkey and human. In each case, qualitatively it was observed that the (2R)-4-[5-fluoro-4-(2-fluoro-4-methoxyphenyl)-2-oxopyridin-1(2H)-yl]-N-hydroxy-2-methyl-2-(methylsulfonyl) butanamide phosphate disappeared, concomitant with appearance of (2R)-4-[5-fluoro-4-(2-fluoro-4-methoxyphenyl)-2-oxopyridin-1(2H)-yl]-N-hydroxy-2-methyl-2-(methylsulfonyl) butanamide (parent compound) and a glucuronide metabolite of the parent compound. In Vivo Studies

hepatocytes from rat = test: In vitro hepatocyte study, rat; format: in vitro ADME; conditions: concomitant appearance of parent compound and its glucuronide metabolite
Description: as §1

hepatocytes from dog = test: In vitro hepatocyte study, dog; format: in vitro ADME; conditions: concomitant appearance of parent compound and its glucuronide metabolite
Description: as §1

hepatocytes from monkey = test: In vitro hepatocyte study, monkey; format: in vitro ADME; conditions: concomitant appearance of parent compound and its glucuronide metabolite
Description: as §1

hepatocytes from human = test: In vitro hepatocyte study, human; format: in vitro ADME; conditions: concomitant appearance of parent compound and its glucuronide metabolite
Description: as §1

[1] = test system: Acinetobacter baumannii/haemolyticus AB-3167; test: MIC determination (CLSI), AB-3167; format: cell-based; conditions: multidrug-resistant clinical isolate, lower of duplicate values
Protocol: (§2) B) MIC determinations: The in vitro antibacterial activity of compounds was evaluated by minimum inhibitory concentration (MIC) testing according to Clinical and Laboratory Standards Institute (CLSI). See: Clinical and Laboratory Standards Institute. Methods for Dilution Antimicrobial Susceptibility Tests for Bacteria that Grow Aerobically; Approved Standard-Eighth Edition. CLSI document M7-A8 [ISBN 1-56238-689-1]. Clinical and Laboratory Standards Institute, 940 West Valley Road, Suite 1400, Wayne, Pennsylvania 19087-1898 USA, 2006; also Clinical and Laboratory Standards Institute. Performance Standards for Antimicrobial Susceptibility Testing; Twentieth Informational Supplement. CLSI document M100-S20 [ISBN1-56238-716-2]. Clinical and Laboratory Standards Institute.
(§3) The MIC determination is a standard laboratory method for evaluating the antibacterial activity of a compound. […] The MIC is then determined by visually inspecting the drug effect at each concentration, and identifying the lowest drug concentration that has inhibited bacterial growth as compared to the drug free control. […]
(§4) The MIC values described in Table 3 below were derived from assays wherein each test compound was evaluated in duplicate. […] While a single MIC is reported for each compound and each microorganism, the reader should not conclude that each compound was only tested once. […]

Escherichia coli EC-1 = test: MIC determination (CLSI), EC-1; format: cell-based; conditions: EC1, read-out: EC-1 MIC
Protocol: as §2, §3, §4

[2] = test system: Klebsiella pneumoniae KP-3700; test: MIC determination (CLSI), KP-3700; format: cell-based; conditions: ciprofloxacin-resistant, ESBL clinical isolate; lower of duplicate values
Protocol: as §2, §3, §4

[3] = test system: Pseudomonas aeruginosa UI-18 (PA-7); test: MIC determination (CLSI), PA-7; format: cell-based; conditions: wild-type UI-18, lower of duplicate values
Protocol: as §2, §3, §4

[4] = Solubility in normal saline; format: physicochemical; conditions: saline or isotonic

| SMILES | disposition in hepatocytes (qualitative) (hepatocytes from mouse) | disposition in hepatocytes (qualitative) (hepatocytes from rat) | disposition in hepatocytes (qualitative) (hepatocytes from dog) | disposition in hepatocytes (qualitative) (hepatocytes from monkey) | disposition in hepatocytes (qualitative) (hepatocytes from human) | MIC [1] [µg/mL] | MIC (Escherichia coli EC-1) [µg/mL] | KP-3700 MIC [2] [µg/mL] | MIC [3] [µg/mL] | solubility [4] [mg/mL] |
| --- | --- | --- | --- | --- | --- | --- | --- | --- | --- | --- |
| COc1ccc(-c2cc(=O)n(CC[C@](C)(C(=O)NOP(=O)(O)O)S(C)(=O)=O)cc2F)c(F)c1 [Example 1, (2R)-4-(5-fluoro-4-(2-fluoro-4-methoxyphenyl)-2-oxopyridin-1(2H)-yl)-2-methyl-2-(methylsulfonyl)butanamido phosphate] | disappeared | disappeared | disappeared | disappeared | disappeared |  |  |  |  |  |
| COc1ccc(-c2cc(=O)n(CC[C@](C)(C(=O)NO)S(C)(=O)=O)cc2F)c(F)c1 [Parent Compound, (2R)-4-[5-fluoro-4-(2-fluoro-4-methoxyphenyl)-2-oxopyridin-1(2H)-yl]-N-hydroxy-2-methyl-2-(methylsulfonyl)butanamide] |  |  |  |  |  | > 64 | 0.25 (≈ 0.581 µM) | 0.5 | 0.5 (≈ 1.16 µM) | < 1 |
| COc1ccc(-c2cc(=O)n(CC[C@](C)(C(=O)NOP(=O)([O-])[O-])S(C)(=O)=O)cc2F)c(F)c1.[Na+].[Na+] [Example 3, (R)-4-(5-fluoro-4-(2-fluoro-4-methoxyphenyl)-2-oxopyridin-1(2H)-yl)-2-methyl-2-(methylsulfonyl)butanamido phosphate, Disodium Salt] |  |  |  |  |  |  |  |  |  | ≥ 20 |

Reference: patent US11981696B2, “Fluoro-pyridinone phosphates and boronates useful as antibacterial agents” (Pfizer Inc., priority 2018, dated 2024)
